Source: ChEMBL document CHEMBL1158760, “Chromenes from the brown alga Sargassum siliquastrum” (J Nat Prod, 2005)

Target: Cholinesterase (Homo sapiens) (UniProt P06276)
Assay: Inhibition of butylcholine esterase at 100 ug/mL

Chain of Cholinesterase (Homo sapiens) (P06276 whole entry): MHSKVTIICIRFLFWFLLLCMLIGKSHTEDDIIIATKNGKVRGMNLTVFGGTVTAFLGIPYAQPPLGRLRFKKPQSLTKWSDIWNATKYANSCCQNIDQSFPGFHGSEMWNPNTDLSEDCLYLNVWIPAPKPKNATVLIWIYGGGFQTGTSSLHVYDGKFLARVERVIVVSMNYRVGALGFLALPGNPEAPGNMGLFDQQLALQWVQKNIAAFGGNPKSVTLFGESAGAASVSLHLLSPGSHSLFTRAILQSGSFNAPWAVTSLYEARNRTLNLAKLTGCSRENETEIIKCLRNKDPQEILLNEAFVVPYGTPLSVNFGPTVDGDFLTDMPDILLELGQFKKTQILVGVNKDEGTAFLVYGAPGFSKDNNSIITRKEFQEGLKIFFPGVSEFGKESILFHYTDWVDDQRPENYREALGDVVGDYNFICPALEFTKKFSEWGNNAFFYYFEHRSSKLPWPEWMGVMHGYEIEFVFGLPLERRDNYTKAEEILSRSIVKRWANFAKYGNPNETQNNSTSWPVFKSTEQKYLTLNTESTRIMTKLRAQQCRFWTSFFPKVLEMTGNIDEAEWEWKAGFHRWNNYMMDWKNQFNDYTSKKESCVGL

SMILES | inhibition
CC(C)=C[C@@H](O)C(=O)/C(C)=C/CC/C(C)=C/CC[C@]1(C)CCc2cc(O)cc(C)c2O1 | 82.7%
CC(C)=CC(C(=O)O)/C(C)=C/CC/C(C)=C/CC[C@]1(C)CCc2cc(O)cc(C)c2O1 (some centres not stated) | 80%
